Experimental data reported in article PMC7066533 (Frontiers in Pharmacology, 2020).
Values joined by “and” are separate entries in the source; they are usually repeats but may differ in a detail not shown here. Equal entries are not always repeated. Where two headings read alike, the source gives them in different places. Square brackets hold non-standard residues; d marks the D form. Peptide text beside a SMILES is read from it. βAla = NCCC(=O)O

Legend:
CD-1 adult male mice [1] = details: mouse, in vivo
[2] = biological target: KOPr in normal human astrocytes (Homo sapiens, UniProt P41145); assay: cell-based; details: read-out: Emax NHA
KOPr [3] = biological target: T1, KOPr (Homo sapiens, UniProt P41145); assay: cell-based
U87-MG cells = assay: Cell proliferation assay ([3H]-thymidine incorporation) in U87-MG cells; format: cell-based, human
Procedure: A cell proliferation assay was carried out as previously reported ([Bedini et al., 2017]). Briefly, U87-MG cells or normal human astrocytes were plated on a 12-well plate and treated as described in the results section or maintained in cell culture medium containing 10% fetal bovine serum. Five hours before the end of the treatments, [methyl-^3H] thymidine (Perkin Elmer) (50 nM final concentration) was added to serum-free cell culture medium, and the plate was incubated at 37°C. Thereafter, the medium was removed, and the cells were washed twice with PBS. Then, 200 μl of PBS was added to each well, and the cells were scraped off and centrifuged at 13,000 g for 3 min at 4°C. The supernatants were then discarded, pellets were re-suspended in 500 μl of cold trichloroacetic acid (10% w/v), incubated on ice for 20 min and centrifuged at 13,000 g for 3 min at 4°C. The supernatant was then discarded, and the pellet was suspended in 500 μl of cold methanol and centrifuged at 3 min for 13,000 g at 4°C. Thereafter, the pellet was suspended in 200 μl of 1 N NaOH and heated at 55°C for 10 min. Samples were then neutralized with 200 μl of 1 N HCl and 350 μl of the labelled DNA incubated in counting vials with 4 ml of Filter Count scintillation liquid (Perkin Elmer Italia). Vials were vortexed and incubated overnight at room temperature, and the radioactivity was determined by liquid scintillation spectrometry.

ERK1/2 phosphorylation = assay: ERK1/2 phosphorylation, western blot; format: cell-based, human
Procedure: HEK-293 cells stably expressing KOPr, U87-MG astrocytoma cells, or normal human astrocytes endogenously expressing KOPr were plated into 6-well plates until 60–70% confluence was reached. Then, the cells were serum-starved for 16–18 h and subsequently exposed to vehicle, LOR17 (1 μM; 0–120 min) or U50,488 (1 μM; 0–120 min). Alternatively, […] and U87-MG cells were exposed to norBNI (10 μM; 30 min prior to LOR17) and then treated with 1 μM LOR17, or they were exposed to increasing concentration of LOR17 (1–100 μM; 30 min). Proteins were extracted as previously reported ([Kuhar et al., 2015]), quantified by means of BCA assay (Pierce) and SDS-page gel electrophoresis performed as previously described for ERK1/2 ([Baiula et al., 2016]) and p38MAPK ([Schattauer et al., 2012]).
Membranes were then incubated with anti-phospho-ERK 1/2 (1:1,000) (Cell Signaling Technology, Danvers, MA, USA), anti-total ERK1/2 antibodies (1:1,000) (Cell Signaling Technology), anti-phospho-p38MAPK antibodies (1:1,000) (Cell Signaling Technology, Danvers, MA, USA), or anti-actin antibodies (1:2,500) (Santa Cruz Biotechnology, Dallas, TX, USA) at 4°C in the presence of BSA (5 g/100 ml) in Tris buffered saline containing Tween-20 (0.1 g/100 ml). […]

hMOPr = biological target: T2, hMOPr (Homo sapiens, UniProt P35372); assay: Displacement binding assay with [3H]DAMGO on HEK-293/hMOPr membranes
T2 construct: expressed in transfected cells

CD-1 adult male mice [4] = details: mouse, in vivo; remark: listed apart in the source
hDOPr = biological target: T3, hDOPr (Homo sapiens, UniProt P41143); assay: Displacement binding assay with [3H]diprenorphine on HEK-293/hDOPr membranes
T3 construct: expressed in transfected cells

[5] = biological target: KOPr in U87-MG human astrocytoma cells (Homo sapiens, UniProt P41145); assay: cell-based; details: U-87 MG, read-out: Emax U87-MG
CD-1 adult male mice [6] = details: mouse, in vivo; remark: listed apart in the source
CD-1 adult male mice [7] = assay: Warm-water tail-withdrawal test; format: in vivo, mouse
Procedure: The warm-water tail-withdrawal test was performed as previously described ([Bedini et al., 2010]). Briefly, a mouse’s tail was immersed in hot water (52 ± 0.5°C), and the latency to tail withdrawal was measured as an indicator of nociception. Prior to being treated, each mouse was tested, and the latency to tail withdrawal was recorded (control latency, CL). Animals not withdrawing their tails within 5 s were not used (6% of mice). Responding animals were then injected i.p. with either vehicle or one of the compounds (LOR17 or U50,488; 0–20 mg/kg). The KOR antagonist norBNI (10 mg/kg; i.p.) was injected 30 min or 24 h prior to administering LOR17.
Latency to withdrawal was measured at 5, 15, 30, 45, 60, and 90 min after drug administration and defined as the test latency (TL), with a cutoff time of 10 s.

hKOPr = format: cell-based, human
KOPr [8] = biological target: T1, KOPr; format: cell-based
p38MAPK phosphorylation = format: cell-based, human
CD-1 adult male mice [9] = assay: Hole-board test; format: in vivo, mouse; details: 10 mg/kg s.c.
Procedure: The hole-board test consisted of a […] plane with 16 flush-mounted cylindrical holes (3 cm diameter) distributed four by four in an equidistant, grid-like manner. Mice were placed on the center of the board one by one and allowed to move about freely for a period of 5 min. Two electric eyes, crossing the plane from midpoint to midpoint of the opposite sides, thus dividing the plane into four equal quadrants, automatically signaled the movement of the animal (counts in 5 min) on the surface of the plane (spontaneous motility). Miniature photoelectric cells in each of the 16 holes recorded (counts in 5 min) the exploration of the holes (exploratory activity) by the mice ([Guerrini et al., 2006]).

normal human astrocytes = format: cell-based; details: SB203580 2 µM, 30 min prior to U50,488
[10] = norBNI 10 µM 15 min prior, SB203580 2 µM 30 min prior, LOR17 10 μM co-administered

T1 sequence (P41145 whole entry): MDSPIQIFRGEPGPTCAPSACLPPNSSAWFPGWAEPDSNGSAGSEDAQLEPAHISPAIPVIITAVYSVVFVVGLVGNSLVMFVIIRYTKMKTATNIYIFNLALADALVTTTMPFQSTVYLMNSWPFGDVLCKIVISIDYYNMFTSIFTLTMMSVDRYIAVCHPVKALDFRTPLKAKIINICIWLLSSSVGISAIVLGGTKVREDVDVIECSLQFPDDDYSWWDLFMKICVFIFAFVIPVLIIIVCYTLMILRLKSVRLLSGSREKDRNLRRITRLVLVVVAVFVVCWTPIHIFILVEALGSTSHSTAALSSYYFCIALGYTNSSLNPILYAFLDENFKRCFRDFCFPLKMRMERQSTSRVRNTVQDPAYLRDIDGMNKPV
T2 sequence (P35372 whole entry): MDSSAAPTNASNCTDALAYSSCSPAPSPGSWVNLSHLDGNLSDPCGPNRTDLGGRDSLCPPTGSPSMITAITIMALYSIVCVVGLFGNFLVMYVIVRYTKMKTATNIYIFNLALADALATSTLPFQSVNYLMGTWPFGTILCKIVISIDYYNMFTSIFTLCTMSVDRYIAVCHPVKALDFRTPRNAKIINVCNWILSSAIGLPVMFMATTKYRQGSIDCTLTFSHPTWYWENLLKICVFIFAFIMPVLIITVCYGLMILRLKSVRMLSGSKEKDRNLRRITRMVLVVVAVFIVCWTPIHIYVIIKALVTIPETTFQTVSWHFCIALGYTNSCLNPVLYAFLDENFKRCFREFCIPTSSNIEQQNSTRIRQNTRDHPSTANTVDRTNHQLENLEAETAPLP
T3 sequence (P41143 whole entry): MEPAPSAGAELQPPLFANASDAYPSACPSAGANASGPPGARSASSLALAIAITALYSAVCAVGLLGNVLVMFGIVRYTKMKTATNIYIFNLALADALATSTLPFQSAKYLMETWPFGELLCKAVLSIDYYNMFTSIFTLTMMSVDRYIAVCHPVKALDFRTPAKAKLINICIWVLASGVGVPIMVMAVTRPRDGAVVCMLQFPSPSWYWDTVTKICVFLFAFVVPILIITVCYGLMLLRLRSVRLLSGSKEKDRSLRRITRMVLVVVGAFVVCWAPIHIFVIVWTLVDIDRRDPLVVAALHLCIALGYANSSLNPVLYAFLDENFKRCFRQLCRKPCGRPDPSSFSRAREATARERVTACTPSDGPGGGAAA
KOPr in normal human astrocytes, sequence (P41145 whole entry): as the sequence (P41145 whole entry) above
KOPr in U87-MG human astrocytoma cells, sequence (P41145 whole entry): as above

O=C1CNC(=O)[C@H](Cc2ccccc2)NC(=O)[C@@H](Cc2c[nH]c3ccccc23)NC(=O)CCN1 [LOR17, c[Phe-Gly-(β-Ala)-D-Trp]] (cyclo(FG[βAla][dW]))
Mobility time (CD-1 adult male mice [1]): 91.6 ± 12.3 s | Emax [2]: 88 ± 6% | log(τ/KA) G Protein (KOPr [3]): 8,856 | Δlog(τ/KA) G Protein (KOPr [3]): 0,261 | Emax (KOPr [3]; HEK293, read-out: Emax HEK-293/KOR): 85 ± 5% | Effect on U50,488 (1 µM)-mediated increase of U87-MG cell proliferation (U87-MG cells): prevented the increase in U87-MG cell proliferation | U87-MG cell proliferation rate vs vehicle (U87-MG cells): did not alter the U87-MG cell proliferation rate | ERK1/2 phosphorylation levels vs vehicle (ERK1/2 phosphorylation): significant increase in ERK1/2 phosphorylation only after 15 min of exposure | Ki (hMOPr): > 100 µM | Number of writhes vs vehicle (CD-1 adult male mice [4]): significantly reduced the number of writhes | ED50, writhing test (CD-1 adult male mice [4]; ip): 5.74 ± 0.46 mg/kg | Ki (hDOPr): > 100 µM | Emax [5]: 87 ± 4% | Effect on oxaliplatin-induced thermal hypersensitivity, single s.c. administration (CD-1 adult male mice [6]): fully reversed the oxaliplatin-dependent hypersensitivity | Efficacy in cold plate test after repeated treatment (CD-1 adult male mice [6]): maintains its efficacy | Licking latency (maximal effect) (CD-1 adult male mice [6]): 18.2 ± 1.4 s and 19.6 ± 1.7 s | Dose from which licking latency increase takes effect (CD-1 adult male mice [6]; sc): 1 mg/kg | ED50, oxaliplatin-induced thermal hypersensitivity (cold plate test) (CD-1 adult male mice [6]; sc): 6.63 ± 0.23 mg/kg | Antinociception in the tail-withdrawal test (CD-1 adult male mice [7]; mouse, in vivo): antinociceptive response in a dose- and time-dependent fashion | ED50, warm-water tail-withdrawal test (CD-1 adult male mice [7]; mouse, in vivo, ip): 10.07 ± 0.36 mg/kg | Bias Factor (hKOPr): 853 | ΔΔlog(τ/KA) (hKOPr): 2,931 | log(τ/KA) β-arrestin 2 (KOPr [8]): 3,432 | Δlog(τ/KA) β-arrestin 2 (KOPr [8]): -2,67 | β-arrestin 2 recruitment at KOPr (KOPr [8]): very week β-arrestin 2 recruitment at KOPr and only at concentrations higher than 1 μM | Effect on U50,488-induced p38MAPK phosphorylation (p38MAPK phosphorylation): counteracted U50,488-induced p38MAPK phosphorylation in a concentration-dependent fashion | p38MAPK phosphorylation vs vehicle (p38MAPK phosphorylation): does not influence p38MAPK phosphorylation | Board (locomotor activity) (CD-1 adult male mice [9]; 0 min): 89.2 ± 7.3 counts in 5 min | Hole (exploratory activity) (CD-1 adult male mice [9]; 0 min): 37.2 ± 3.9 counts in 5 min | Board (locomotor activity) (CD-1 adult male mice [9]; 30 min): 97.2 ± 16.9 counts in 5 min | Hole (exploratory activity) (CD-1 adult male mice [9]; 30 min): 39.0 ± 4.6 counts in 5 min

C[S+]([O-])c1ccc(-c2nc(-c3ccncc3)c(-c3ccc(F)cc3)[nH]2)cc1 (stereo not drawn) [SB203580, reference compound]
Effect on U50,488 (1 µM)-mediated increase of U87-MG cell proliferation (U87-MG cells; [10]): prevented | Effect on U50,488 (1 µM)-enhanced normal human astrocyte cell proliferation (normal human astrocytes): abolished

Oc1ccc2c3c1O[C@H]1c4[nH]c5c(c4C[C@@]4(O)[C@@H](C2)N(CC2CC2)CC[C@]314)C[C@@]1(O)[C@H]2Cc3ccc(O)c4c3[C@@]1(CCN2CC1CC1)[C@H]5O4 [norBNI, norbinaltorphimine, reference compound]
Effect on U50,488 (1 µM)-mediated increase of U87-MG cell proliferation (U87-MG cells; [10]): prevented | LOR17 (1 μM)-mediated increase in ERK1/2 phosphorylation after antagonist (ERK1/2 phosphorylation; norBNI 10 μM, 30 min prior to LOR17, HEK-293/hKOPr and U87-MG cells): fully reverted | Effect on LOR17-mediated antinociception in the tail-withdrawal test (CD-1 adult male mice [7]; norBNI 10 mg/kg i.p.): prevented
